Source: PubChem BioAssay (NCI)
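Each compound was tested at five concentrations against cells in 96-well plates for 48 hours. Definition used: TGI = concentration required for complete inhibition of growth.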

Legend:
Experiment in all cases: NCI-60 cell line screen, 48 h
HCT-116 colon = system: HCT-116 colon
HS 578T breast = system: HS 578T breast
MCF7 breast = system: MCF7 breast
MDA-MB-231 breast = system: MDA-MB-231 breast
NCI-H460 lung = system: NCI-H460 lung
OVCAR-4 ovarian = system: OVCAR-4 ovarian
SF-268 CNS = system: SF-268 CNS
SK-MEL-28 melanoma = system: SK-MEL-28 melanoma
SN12C renal = system: SN12C renal
TK-10 renal = system: TK-10 renal
UO-31 renal = system: UO-31 renal

Compound | TGI (HCT-116 colon) [µM] | TGI (HS 578T breast) [µM] | TGI (MCF7 breast) [µM] | TGI (MDA-MB-231 breast) [µM] | TGI (NCI-H460 lung) [µM] | TGI (OVCAR-4 ovarian) [µM] | TGI (SF-268 CNS) [µM] | TGI (SK-MEL-28 melanoma) [µM] | TGI (SN12C renal) [µM] | TGI (TK-10 renal) [µM] | TGI (UO-31 renal) [µM]
Cc1ccc(S(=O)(=O)N2CCC[C@@H]2C(=O)O[C@@H]2CCC3CC=CC32)cc1 (some centres undefined) | > 100 | 87.5 | > 100 | > 100 | > 100 | > 100 | 75 | > 100 | > 100 | > 100 | 41.5
COc1cc(C2c3cc4c(cc3OC(NNC(N)=O)C2C)OCO4)cc(OC)c1OC (centres undefined) | > 36.5 | > 64.9 | > 53.8 | 7.25 | > 89.8 | > 100 | > 100 | > 100 | > 100 | > 100 | > 72.6
CC(C)C(Nc1ncnc2nc[nH]c12)C(=O)O (centres undefined) | > 100 | > 100 | > 100 | > 100 | > 100 | > 100 | > 100 | > 100 | > 100 | > 100 | > 100
CCOC(=O)/C=C(/C(=O)OCC)n1cc(C)c(=O)n(Cc2cnnn2COCCOC(C)=O)c1=O | 28.4 | 74 | 36 | 36.1 | > 61.5 | 47 | 42.5 | 47.5 | 52.4 | 12.3 | 30.4
COC(=O)Nc1nc2ccc(S(=O)(=O)Nc3ccccn3)cc2[nH]1 | > 100 | > 100 | > 100 | > 100 | > 100 | > 100 | > 100 | 56.2 | > 100 | 70.3 | > 100
O[C@@H]1C[C@H](Cl)c2c(Cl)sc(Cl)c21 | > 100 | > 100 | > 100 | > 100 | > 100 | > 100 | > 100 | > 100 | > 100 | > 100 | > 100
COc1ccc2c(c1)CC[C@@H]1C2CC[C@]2(C)C(=O)N(CCN(C)C)C(=O)CC12 (some centres undefined) | > 100 | > 100 | > 100 | > 100 | > 100 | > 100 | > 100 | > 100 | > 100 | > 100 | > 100
Cn1c2ccc(F)cc2c2ccc3c(c21)C(=O)C=CC3=O | 20.3 | > 86.5 | 16.5 | 16.5 | > 100 | 11.1 | 58.2 | 28.5 | 31 | 13.7 | 14.9
Cc1cc2cc3cc(C)c(N)cc3nc2cc1N | 1.31 | 10.5 | 2.71 | 1.27 | 1.21 | 1.49 | 2.71 | 2.94 | 1.63 | 1.62 | 10.4
